In patent US10485808B2, “Selective progesterone receptor modulators (SPRM) and stabilized estrogen level in patient” (BAYER PHARMA AKTIENGESELLSCHAFT, priority 2017, dated 2019):

Columns and labels:
Format in all cases: in vivo, human
[1] = tested on: women diagnosed with uterine fibroids; test: Study 15788: hot flush events during treatment
Description: Example 5: Hot Flush Events in Study Subject Treated with Compound 1 (Cp1)
See full study description in Example 4.
(§1) Hot flush events were reported and monitored during treatment.

[2] = tested on: healthy women of reproductive age; test: Study 15818: hot flush events during treatment period; details: for Hot flush events, Events (%): 12 weeks
Description: Example 3: Hot Flush Event in Study Subject Treated with Compound 1 (Cp1)
See full study description in Example 2.
Hot flush event were reported and monitored during treatment period.

[3] = tested on: women diagnosed with uterine fibroids; test: Study 17541/A1: hot flush events during treatment; details: Cp1 2.0 mg once daily oral, 24 weeks
Description: Example 7: Hot Flush Events in Study Subject Treated with Compound 1 (Cp1)
See full study description in Example 6.
as §1

[4] = tested on: women diagnosed with uterine fibroids; test: Study 17541/A1: estradiol concentrations in serum, 1x24 weeks treatment; details: for Estradiol concentrations in serum, Max / Estradiol concentrations in serum, Mean / Estradiol concentrations in serum, Median / Estradiol concentrations in serum, Min: Cp1 2 mg once daily oral
Experimental: Example 6: Clinical Study in Women Diagnosed with Uterine Fibroids During a 1×24 Weeks Treatment with Compound 1
Study protocol (N^o 17541/A1):
(§2) Route of administration: Oral
Duration of treatment: 1×24 weeks
Women, 18 to 50 years old, with uterine fibroids documented by transvaginal or abdominal ultrasound at screening with at least 1 uterine fibroid with largest diameter >3 cm and Heavy Menstrual Bleeding (HMB)>80 mL were eligible for enrolment in the study.
(§3) Following screening visit 1 (Visit 1), there was a screening period of up to 90 days to arrange for complete results of all baseline assessments. […] Every effort was made to keep the duration of the screening period to a minimum.
Eligible subjects were equally randomized to treatment 2 mg of Compound 1. Treatment was started during the first week of the menstrual cycle following randomization. The treatment period consisted of 24 weeks of daily tablet intake.
In this study, estradiol levels were measured • Treatment Visit 3 (corresponding to the end of 12 weeks treatment), • Treatment Visit 6 (corresponding to the end of 24 weeks treatment).

[5] = tested on: women diagnosed with uterine fibroids; test: Study 15788: estradiol concentrations in serum, 1x12 weeks treatment
Experimental: Example 4: Clinical Study in Women Diagnosed with Uterine Fibroids During a 1×12 Weeks/84 Days Treatment with Compound 1
Study protocol (N^o 15788):
Doses: 0.5 mg, 1 mg, 2 mg, or 4 mg once daily
as §2
Duration of treatment: 1×12 weeks (84 days)
Women, 18 to 50 years old, with uterine fibroids documented by transvaginal or abdominal ultrasound at screening with at least 1 uterine fibroid with largest diameter 3 cm and Heavy Menstrual Bleeding (HMB) 80 mL were eligible for enrolment in the study.
as §3
Eligible subjects were equally randomized to one of the treatment groups (Placebo, 0.5 mg, 1 mg, 2 mg, or 4 mg Compound 1). Treatment was started during the first week of the menstrual cycle following randomization. The treatment period consisted of 12 weeks (84 days) of daily tablet intake.
In this study, estradiol levels were measured • At the End of Treatment (EoT) visit and • Randomization visit 3.

[6] = Treatment Visit 3 (end of 12 weeks treatment)
[7] = Treatment Visit 6 (end of 24 weeks treatment)
[8] = Cp1 0.5 mg once daily oral, End of Treatment (12 weeks)
[9] = Cp1 0.5 mg once daily oral, Randomization
[10] = Cp1 1 mg once daily oral, End of Treatment (12 weeks)
[11] = Cp1 1 mg once daily oral, Randomization
[12] = Cp1 2 mg once daily oral, End of Treatment (12 weeks)
[13] = Cp1 2 mg once daily oral, Randomization
[14] = Cp1 4 mg once daily oral, End of Treatment (12 weeks)
[15] = Cp1 4 mg once daily oral, Randomization

Hot flush events, MILD, number of subjects ([1]; Cp1 0.5 mg, N = 60, 12 weeks): 5 | Hot flush events, MILD, percent of subjects ([1]; Cp1 0.5 mg, N = 60, 12 weeks): 8.3% | Hot flush events, MODERATE, number of subjects ([1]; Cp1 0.5 mg, N = 60, 12 weeks): 0 | Hot flush events, SEVERE, number of subjects ([1]; Cp1 0.5 mg, N = 60, 12 weeks): single | Hot flush events, SEVERE, percent of subjects ([1]; Cp1 0.5 mg, N = 60, 12 weeks): 1.7% | Hot flush events, Total, number of subjects ([1]; Cp1 0.5 mg, N = 60, 12 weeks): 6 | Hot flush events, Total, percent of subjects ([1]; Cp1 0.5 mg, N = 60, 12 weeks): 0.0% | Hot flush events, SEVERE, number of subjects ([1]; Cp1 0.5 mg, N = 60, 12 weeks, listed as Cp1): 1 | Hot flush events, MILD, number of subjects ([1]; Cp1 1 mg, N = 61, 12 weeks): 3 | Hot flush events, MILD, percent of subjects ([1]; Cp1 1 mg, N = 61, 12 weeks): 4.9% | Hot flush events, MODERATE, number of subjects ([1]; Cp1 1 mg, N = 61, 12 weeks): 2 | Hot flush events, MODERATE, percent of subjects ([1]; Cp1 1 mg, N = 61, 12 weeks): 3.3% | Hot flush events, SEVERE, number of subjects ([1]; Cp1 1 mg, N = 61, 12 weeks): 0 | Hot flush events, Total, number of subjects ([1]; Cp1 1 mg, N = 61, 12 weeks): 5 | Hot flush events, Total, percent of subjects ([1]; Cp1 1 mg, N = 61, 12 weeks): 8.2% | Hot flush events, MILD, number of subjects ([1]; Cp1 2 mg, N = 61, 12 weeks): 4 | Hot flush events, MILD, percent of subjects ([1]; Cp1 2 mg, N = 61, 12 weeks): 6.6% | Hot flush events, MODERATE, number of subjects ([1]; Cp1 2 mg, N = 61, 12 weeks): 1 | Hot flush events, MODERATE, percent of subjects ([1]; Cp1 2 mg, N = 61, 12 weeks): 1.6% | Hot flush events, SEVERE, number of subjects ([1]; Cp1 2 mg, N = 61, 12 weeks): 0 | Hot flush events, Total, number of subjects ([1]; Cp1 2 mg, N = 61, 12 weeks): 5 | Hot flush events, Total, percent of subjects ([1]; Cp1 2 mg, N = 61, 12 weeks): 8.2% | Hot flush events, MILD, number of subjects ([1]; Cp1 4 mg, N = 60, 12 weeks): 5 | Hot flush events, MILD, percent of subjects ([1]; Cp1 4 mg, N = 60, 12 weeks): 8.3% | Hot flush events, MODERATE, number of subjects ([1]; Cp1 4 mg, N = 60, 12 weeks): 3 | Hot flush events, MODERATE, percent of subjects ([1]; Cp1 4 mg, N = 60, 12 weeks): 5.0% | Hot flush events, SEVERE, number of subjects ([1]; Cp1 4 mg, N = 60, 12 weeks): 0 | Hot flush events, Total, number of subjects ([1]; Cp1 4 mg, N = 60, 12 weeks): 8 | Hot flush events, Total, percent of subjects ([1]; Cp1 4 mg, N = 60, 12 weeks): 13.3% | Subjects showing mild to moderate hot flushes, overall ([1]; all dose groups, 12 weeks): no more than 14% | Hot flush events, Events (%) ([2]; Cp1 0.5 mg once daily oral): 5.6% | Hot flush events, Events (%) ([2]; Cp1 1.0 mg once daily oral): 11.1% | Hot flush events, Events (%) ([2]; Cp1 2.0 mg once daily oral): 17.6% | Hot flush events, Events (%) ([2]; Cp1 4.0 mg once daily oral): 29.4% | Severe hot flushes ([2]; all dose groups 0.5-4 mg): No severe hot flushes were reported | Subjects reporting hot flush, total study subjects ([2]; all dose groups 0.5-4 mg): 11 | Hot flush events, Events (%) [3]: no more than 11.4% | Hot flush events, Events (%) ([3]; listed as Cp1): 11.4%
Structure (SMILES): C[C@]12C[C@H](c3ccc(S(C)(=O)=O)cc3)C3=C4CCC(=O)C=C4CC[C@H]3[C@@H]1CC[C@@]2(O)C(F)(F)C(F)(F)F [Compound 1, (11β,17β)-17-Hydroxy-11-[4-(methylsulphonyl)phenyl]-17-(pentafluoroethyl)estra-4,9-dien-3-one]
Estradiol levels under treatment compared to baseline ([4]; 2 mg once daily, 24 weeks): moderately suppressed | Safety concerns from the data analysed ([4]; 2 mg once daily, 24 weeks): no safety concerns were identified | Estradiol concentrations in serum, Max ([4]; Baseline): 644.2 pg/mL | Estradiol concentrations in serum, Mean ([4]; Baseline): 135.97 pg/mL | Estradiol concentrations in serum, Median ([4]; Baseline): 93.55 pg/mL | Estradiol concentrations in serum, Min ([4]; Baseline): 29.4 pg/mL | Estradiol concentrations in serum, Max [4, 6]: 557.5 pg/mL | Estradiol concentrations in serum, Mean [4, 6]: 77.46 pg/mL | Estradiol concentrations in serum, Median [4, 6]: 47.50 pg/mL | Estradiol concentrations in serum, Min [4, 6]: 11.0 pg/mL | Estradiol concentrations in serum, Max [4, 7]: 132.5 pg/mL | Estradiol concentrations in serum, Mean [4, 7]: 44.69 pg/mL | Estradiol concentrations in serum, Median [4, 7]: 42.50 pg/mL | Estradiol concentrations in serum, Min [4, 7]: 7.9 pg/mL | Mean estradiol values after the EoT ([4]; data not shown): returned to baseline levels | Estradiol levels under treatment compared to baseline ([5]; 0.5-4 mg once daily, 12 weeks): moderately suppressed | Safety concerns from the data analysed ([5]; 0.5-4 mg once daily, 12 weeks): no safety concerns were identified | Estradiol concentrations in serum, Max [5, 8]: 357.5 pg/mL | Estradiol concentrations in serum, Mean [5, 8]: 97.3 pg/mL | Estradiol concentrations in serum, Median [5, 8]: 56.9 pg/mL | Estradiol concentrations in serum, Min [5, 8]: 8.3 pg/mL | Estradiol concentrations in serum, Max [5, 9]: 318.6 pg/mL | Estradiol concentrations in serum, Mean [5, 9]: 115.78 pg/mL | Estradiol concentrations in serum, Median [5, 9]: 100.2 pg/mL | Estradiol concentrations in serum, Min [5, 9]: 7.1 pg/mL | Estradiol concentrations in serum, Max [5, 10]: 384.9 pg/mL | Estradiol concentrations in serum, Mean [5, 10]: 72.85 pg/mL | Estradiol concentrations in serum, Median [5, 10]: 50 pg/mL | Estradiol concentrations in serum, Min [5, 10]: 11.8 pg/mL | Estradiol concentrations in serum, Median ([5]; Cp1 1 mg once daily oral, End of Treatment (12 weeks), listed as Cp1): 50.1 pg/mL | Estradiol concentrations in serum, Max [5, 11]: 490.2 pg/mL | Estradiol concentrations in serum, Mean [5, 11]: 120.72 pg/mL | Estradiol concentrations in serum, Median [5, 11]: 103.65 pg/mL | Estradiol concentrations in serum, Min [5, 11]: 21.5 pg/mL | Estradiol concentrations in serum, Max [5, 12]: 433.9 pg/mL | Estradiol concentrations in serum, Mean [5, 12]: 76.23 pg/mL | Estradiol concentrations in serum, Median [5, 12]: 50 pg/mL | Estradiol concentrations in serum, Min [5, 12]: 10.5 pg/mL | Estradiol concentrations in serum, Median ([5]; Cp1 2 mg once daily oral, End of Treatment (12 weeks), listed as Cp1): 49.95 pg/mL | Estradiol concentrations in serum, Max [5, 13]: 407.8 pg/mL | Estradiol concentrations in serum, Mean [5, 13]: 111.25 pg/mL | Estradiol concentrations in serum, Median [5, 13]: 96.6 pg/mL | Estradiol concentrations in serum, Min [5, 13]: 6.7 pg/mL | Estradiol concentrations in serum, Max [5, 14]: 255.3 pg/mL | Estradiol concentrations in serum, Mean [5, 14]: 56.51 pg/mL | Estradiol concentrations in serum, Median [5, 14]: 39 pg/mL | Estradiol concentrations in serum, Min [5, 14]: 9.5 pg/mL | Estradiol concentrations in serum, Median ([5]; Cp1 4 mg once daily oral, End of Treatment (12 weeks), listed as Cp1): 38.7 pg/mL | Estradiol concentrations in serum, Max [5, 15]: 347.6 pg/mL | Estradiol concentrations in serum, Mean [5, 15]: 117.05 pg/mL | Estradiol concentrations in serum, Median [5, 15]: 101.7 pg/mL | Estradiol concentrations in serum, Min [5, 15]: 6.8 pg/mL | Mean estradiol values after the EoT ([5]; all Doses, data not shown): returned to baseline levels
